Experimental findings from patent publication US20240158446A1, “CYCLIC COMPOUND HAVING SELECTIVE INHIBITORY ACTION ON KRAS OVER HRAS AND NRAS” (CHUGAI SEIYAKU KABUSHIKI KAISHA, priority 2021, published 2024) are described below.

Each structure is given as a SMILES string.

In assay [1] the target is GDP-bound KRAS wild-type protein (Homo sapiens, UniProt P01116). The assay can be described thus: Binding to KRAS by surface plasmon resonance (SPR), Single Cycle Kinetics. The conditions noted are these: SPR, Single Cycle Kinetics, 1:1 binding model; GDP-bound KRAS wild-type protein; read-out: KRAS KD.
Assay [2] concerns the target GDP-bound NRAS wild-type protein (Homo sapiens, UniProt P01111). Description: Binding to NRAS by surface plasmon resonance (SPR), Single Cycle Kinetics. As to conditions: SPR; GDP-bound NRAS wild-type protein vs GDP-bound KRAS wild-type protein; KD ratio class. For orientation: SPR reads the build-up and loss of mass on a sensor chip optically.
The target of assay [3] is GDP-bound HRAS wild-type protein (Homo sapiens, UniProt P01112). The assay can be described thus: Binding to HRAS by surface plasmon resonance (SPR), Single Cycle Kinetics. The conditions noted are these: SPR; GDP-bound HRAS wild-type protein vs GDP-bound KRAS wild-type protein; KD ratio class.
For assay [4], the system named is human lung cancer strain NCI-H441.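 Further: cell proliferation inhibition after four days measured by CellTiter-Glo.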

Chain of GDP-bound HRAS wild-type protein (P01112 whole entry): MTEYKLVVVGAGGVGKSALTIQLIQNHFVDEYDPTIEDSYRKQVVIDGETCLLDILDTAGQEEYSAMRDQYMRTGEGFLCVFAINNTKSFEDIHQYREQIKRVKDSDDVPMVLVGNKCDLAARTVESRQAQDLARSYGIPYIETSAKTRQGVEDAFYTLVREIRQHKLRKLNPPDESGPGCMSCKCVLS
Chain of GDP-bound KRAS wild-type protein (P01116 whole entry): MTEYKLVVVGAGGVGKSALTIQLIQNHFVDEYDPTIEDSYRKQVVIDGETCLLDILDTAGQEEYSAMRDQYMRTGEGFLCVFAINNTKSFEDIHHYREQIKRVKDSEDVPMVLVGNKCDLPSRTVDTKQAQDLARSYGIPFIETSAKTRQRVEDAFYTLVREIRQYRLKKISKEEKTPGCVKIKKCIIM
Chain of GDP-bound NRAS wild-type protein (P01111 whole entry): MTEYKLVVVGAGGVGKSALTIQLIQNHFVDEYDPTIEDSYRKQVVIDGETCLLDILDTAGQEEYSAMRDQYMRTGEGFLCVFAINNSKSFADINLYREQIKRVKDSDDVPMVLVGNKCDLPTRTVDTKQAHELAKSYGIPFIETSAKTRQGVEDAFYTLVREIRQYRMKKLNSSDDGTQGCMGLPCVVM

Usually Kd stands for the free concentration of one partner at which half of the binding sites on the other are occupied at equilibrium, for simple one-to-one binding. One may read the IC50 as the concentration needed to halve the response being measured. Turning to `CCC[C@H]1C(=O)N[C@@H]([C@@H](C)CC)C(=O)N(C)CC(=O)N(C)[C@H]2C/C=C\CCN(C2=O)[C@@H](Cc2ccc(C(F)(F)F)cc2)C(=O)N(C)CC(=O)N[C@@H](CCc2cc(F)c(C(F)(F)F)c(F)c2)C(=O)N2C[C@H](OCC)C[C@H]2C(=O)NC2(CCC2)C(=O)N(C)[C@@H](C2CCCC2)C(=O)N(C)[C@H](C(=O)N2CCCC2)CC(=O)N1C` [PP1299, (2S,8S,12R,14S,20S,23S,27S,30S,36S,38Z)-20-cyclopentyl-8-[2-[3,5-difluoro-4-(trifluoromethyl)phenyl]ethyl]-12-ethoxy-4,19,22,26,32,35-hexamethyl-30-[(1S)-1-methylpropyl]-27-propyl-23-(pyrrolidine-1-carbonyl)-2-[[4-(trifluoromethyl)phenyl]methyl]spiro[1,4,7,10,16,19,22,26,29,32,35-undecazatricyclo[34.5.1.0^10,14]dotetracont-38-ene-17,1′-cyclobutane]-3,6,9,15,18,21,25,28,31,34,42-undecone], the Kd in assay [1] came to 0.14 nM. Besides, in assay [2], the “NRAS/KRAS (ratio of KD value for NRAS to KD value for KRAS)” value is “A (a compound having 10 or more and less than 20 is denoted as A)”. Further, the “HRAS/KRAS (ratio of KD value for HRAS to KD value for KRAS)” value in assay [3] was “A (a compound having 10 or more and less than 20 is denoted as A)”. Moreover, the IC50 in assay [4] was determined as 11 nM.
For `CCO[C@@H]1C[C@H]2C(=O)NC3(CCC3)C(=O)N(C)[C@@H](C3CCCC3)C(=O)N(C)[C@H](C(=O)N(C)C)CC(=O)N(C)[C@@H](CC(C)C)C(=O)N[C@@H]([C@@H](C)CC)C(=O)N(C)CC(=O)N(C)[C@H]3C/C=C\CCN(C3=O)[C@@H](Cc3ccc(C(F)(F)F)cc3)C(=O)N(C)CC(=O)N[C@@H](CCc3cc(F)c(Cl)c(F)c3)C(=O)N2C1` [PP1263], the Kd in assay [1] was 0.23 nM. Moreover, in assay [2], the “NRAS/KRAS (ratio of KD value for NRAS to KD value for KRAS)” value was “A (a compound having 10 or more and less than 20 is denoted as A)”. The “HRAS/KRAS (ratio of KD value for HRAS to KD value for KRAS)” value in assay [3] is “A (a compound having 10 or more and less than 20 is denoted as A)”. This molecule had an IC50 in assay [4] of 18.9 nM.
On to `CC[C@H](C)[C@@H]1NC(=O)[C@H](CC2CC2)N(C)C(=O)C[C@@H](C)N(C)C(=O)[C@H](C2CCCC2)N(C)C(=O)C2(CCC2)NC(=O)[C@H](CCC(F)F)N(C)C(=O)[C@H](CCc2cc(F)c(C(F)(F)F)c(F)c2)NC(=O)CN(C)C(=O)[C@H](Cc2ccc(C(F)(F)F)cc2)N2CC/C=C\C[C@@H](C2=O)N(C)C(=O)CN(C)C1=O` [PP1404], for which the Kd in assay [1] was found to be 4.8 nM. Besides, in assay [2], the “NRAS/KRAS (ratio of KD value for NRAS to KD value for KRAS)” value is “A (a compound having 10 or more and less than 20 is denoted as A)”. In assay [3], the “HRAS/KRAS (ratio of KD value for HRAS to KD value for KRAS)” value was “A (a compound having 10 or more and less than 20 is denoted as A)”. The same molecule returned an IC50 in assay [4] of 498 nM.
On to `CCO[C@@H]1C[C@H]2C(=O)NC3(CCC3)C(=O)N(C)[C@@H](C3CCCC3)C(=O)N(C)[C@H](C(=O)N(C)C)CC(=O)N(C)[C@@H](CC3CCC3)C(=O)N[C@@H]([C@@H](C)CC)C(=O)N(C)CC(=O)N(C)[C@H]3C/C=C\CCN(C3=O)[C@@H](CC3CCCCC3)C(=O)N(C)CC(=O)N[C@@H](CCc3cc(F)c(C(F)(F)F)c(F)c3)C(=O)N2C1` [PP1469], for which the dissociation constant Kd in assay [1] worked out at 0.18 nM. For the same molecule, the “NRAS/KRAS (ratio of KD value for NRAS to KD value for KRAS)” value in assay [2] was “A (a compound having 10 or more and less than 20 is denoted as A)”. Further, in assay [3], the “HRAS/KRAS (ratio of KD value for HRAS to KD value for KRAS)” value was “A (a compound having 10 or more and less than 20 is denoted as A)”. In assay [4], this molecule returned an IC50 of 22.2 nM.
